Results: ChEMBL document CHEMBL1201862, “PubChem BioAssay data set” (2004)
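Results reflect a 48-hour exposure of cells in 96-well plates to compound at five concentrations. GI50 marks 50% less growth.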 The source made the active and inactive calls. Cut-off read from the data, not from the text of the source: active = GI50 up to about 1.1 µM and inactive = higher.

Key:
Assay in all cases: NCI-60 cell line screen, 48 h
[1] = test system: NCI-H23
[2] = test system: MDA-MB-435
[3] = test system: K562
[4] = test system: 786-0
[5] = test system: T47D
[6] = test system: SNB-19
[7] = test system: HT-29
[8] = test system: SNB-75
[9] = test system: NCI-H522
[10] = test system: UACC-257
[11] = test system: IGROV-1
[12] = test system: NCI-H226
[13] = test system: HOP-92
[14] = test system: A498
[15] = test system: UACC-62
[16] = test system: A549
[17] = test system: M14
[18] = test system: SW-620
[19] = test system: CCRF-CEM
[20] = test system: MDA-N

Measured: GI50

CCC1c2[nH]c3ccccc3c2C[C@H]2C(=O)NC(COC(C)(C)C)C(=O)N12 (some centres undefined)
inactive: [1] 32.9 µM | [2] 37.7 µM | [3] 39.4 µM | [4] 61.2 µM | [5] 44.9 µM | [6] 49.1 µM | [7] 38.2 µM | [8] 19.8 µM | [9] 38.5 µM | [10] 25.2 µM | [11] 29.8 µM | [12] > 100 µM | [13] 21.2 µM | [14] 72.3 µM | [15] 53.3 µM | [16] 39.3 µM | [17] 30.1 µM | [18] 69 µM

CC(C)(C)c1cc(C2COC(=O)COCCOCC(=O)OCCOCCO2)cc(C(C)(C)C)c1O (centres undefined)
inactive: [1] 42.7 µM | [2] 37.3 µM | [3] > 100 µM | [19] > 100 µM | [4] 10 µM | [5] 29.2 µM | [6] > 100 µM | [7] 37.2 µM | [8] 20.9 µM | [9] > 47 µM | [10] > 71.6 µM | [11] 72.8 µM | [12] > 100 µM | [13] 24.7 µM | [14] > 80.5 µM | [15] 47.9 µM | [16] > 100 µM | [17] 42.1 µM | [18] 53.6 µM

CN(C)c1ccc(/C=N/c2ccc(-c3nc4ccccc4o3)cc2)cc1
inactive: [1] 32.7 µM | [2] 30.1 µM | [3] 36.7 µM | [4] 50.6 µM | [5] 19.4 µM | [6] > 100 µM | [7] 56.2 µM | [8] 54.7 µM | [9] 42.3 µM | [10] 25.5 µM | [11] 42.6 µM | [13] 70.3 µM | [14] 53 µM | [15] 38.7 µM | [16] 46.9 µM | [17] 58.5 µM | [18] 86.3 µM

CC(C)C(=O)[C@@]1(C)SC[C@H]2CCN=C21
inactive: [1] > 100 µM | [2] 25.1 µM | [3] > 100 µM | [20] 34.8 µM | [19] > 100 µM | [4] > 100 µM | [6] > 100 µM | [7] > 100 µM | [9] 52 µM | [10] > 100 µM | [11] > 100 µM | [12] > 100 µM | [13] 16.9 µM | [14] 34.4 µM | [15] 41.4 µM | [16] > 100 µM | [17] 71 µM | [18] > 100 µM

ClCCN1CCOC1=C1C=CC=C1
inactive: [1] > 100 µM | [2] > 100 µM | [19] 80.4 µM | [4] > 100 µM | [5] > 100 µM | [6] > 100 µM | [7] > 100 µM | [8] > 100 µM | [10] > 100 µM | [11] 14 µM | [12] > 100 µM | [13] > 100 µM | [14] > 100 µM | [16] > 100 µM | [17] > 100 µM | [18] > 100 µM

CCOC(=O)CC1=N/C(=N/C(=N)N[N+](=O)[O-])SC1
inactive: [1] > 100 µM | [3] > 100 µM | [19] > 100 µM | [4] > 100 µM | [6] > 100 µM | [7] > 100 µM | [8] > 100 µM | [9] > 100 µM | [10] > 100 µM | [11] > 100 µM | [12] > 100 µM | [13] > 100 µM | [14] > 100 µM | [15] > 100 µM | [16] > 100 µM | [17] > 100 µM | [18] > 100 µM

Cc1nc2ccccc2c(=O)n1/N=C(\N=N\c1cc(Cl)ccc1Cl)c1ccccc1
inactive: [1] 50.7 µM | [2] 21.3 µM | [3] > 100 µM | [19] 48.6 µM | [4] 74.1 µM | [5] > 100 µM | [6] 29 µM | [7] 36.7 µM | [8] 16.1 µM | [9] 29.9 µM | [10] 17.4 µM | [11] 44.6 µM | [12] 43.1 µM | [13] 30.4 µM | [14] > 94.2 µM | [15] 45.8 µM | [16] 71 µM | [17] 54.7 µM | [18] 32.1 µM

CCOC(=O)c1cc(-c2ccc(OC)cc2)c([N+](=O)[O-])[nH]1
inactive: [1] > 10 µM | [2] > 5.01 µM | [3] 1.95 µM | [20] > 2.46 µM | [19] > 10 µM | [4] > 10 µM | [6] > 10 µM | [7] > 10 µM | [8] > 10 µM | [9] 9.82 µM | [10] > 10 µM | [11] > 10 µM | [12] > 9.08 µM | [13] > 10 µM | [14] > 10 µM | [15] 7.78 µM | [16] > 10 µM | [17] > 10 µM | [18] > 10 µM

CC(C)=CCC\C(C)=C/C=C/C(C)=C\C=C\C(C)=C/C=C/C=C(C)\C=C\C=C(C)/C=C/C=C(/C)CCC=C(C)C
inactive: [2] > 100 µM | [3] > 100 µM | [20] > 100 µM | [19] > 100 µM | [4] > 100 µM | [6] > 100 µM | [7] > 100 µM | [8] > 100 µM | [10] > 100 µM | [11] > 100 µM | [12] > 100 µM | [13] > 100 µM | [14] > 100 µM | [15] > 100 µM | [16] > 100 µM | [17] > 100 µM | [18] > 100 µM

C/C(=C\C(=O)Nc1ccc2[nH]nnc2c1)Nc1ccc2[nH]nnc2c1
inactive: [1] > 100 µM | [3] > 100 µM | [19] > 100 µM | [4] > 100 µM | [6] > 100 µM | [7] > 100 µM | [8] > 100 µM | [9] > 100 µM | [10] > 100 µM | [11] > 100 µM | [12] > 100 µM | [13] > 100 µM | [14] > 100 µM | [15] > 100 µM | [16] > 100 µM | [17] > 100 µM | [18] > 100 µM

O=c1[nH]ncc2[nH]c3c4ccccc4ccc3c12
inactive: [2] 18 µM | [3] 45.7 µM | [20] 26.4 µM | [19] 46.3 µM | [4] 61.7 µM | [5] 52.8 µM | [7] 39 µM | [9] 19 µM | [13] 14 µM | [16] 22.2 µM | [17] 94.6 µM | [18] 41.3 µM

O=[N+]([O-])c1ccc(-n2nnc(C3=NCCCN3)c2-c2ccc(Cl)cc2)cc1
inactive: [1] > 100 µM | [3] 61.1 µM | [19] > 100 µM | [4] > 100 µM | [6] > 100 µM | [7] 58.5 µM | [8] > 100 µM | [9] > 100 µM | [10] 67.1 µM | [11] > 100 µM | [12] > 100 µM | [13] > 100 µM | [14] > 100 µM | [15] > 100 µM | [16] > 100 µM | [17] 54 µM | [18] > 100 µM

Cc1ccc(S(=O)(=O)NC(=O)NCC(N)=O)cc1
inactive: [1] > 100 µM | [3] > 100 µM | [20] > 100 µM | [19] > 100 µM | [4] > 100 µM | [5] > 100 µM | [6] > 100 µM | [7] > 100 µM | [8] > 100 µM | [9] > 100 µM | [10] > 100 µM | [11] > 100 µM | [13] > 100 µM | [15] > 100 µM | [16] > 100 µM | [17] > 100 µM | [18] > 100 µM

C=C1C[C@]23CC[C@@H]4C(CO)(CO)CC(=O)C[C@]4(C)[C@@H]2C(O)C[C@H]1C3 (some centres undefined)
inactive: [1] > 100 µM | [2] > 100 µM | [3] > 100 µM | [20] > 100 µM | [19] > 100 µM | [4] > 100 µM | [6] > 100 µM | [7] > 100 µM | [8] > 100 µM | [9] > 100 µM | [10] > 100 µM | [11] > 100 µM | [12] > 100 µM | [13] > 100 µM | [15] > 100 µM | [16] > 100 µM | [17] > 100 µM | [18] > 100 µM

O=C(Oc1cccc(Cl)c1)c1cc2cc(CCl)ccc2oc1=O
inactive: [1] 59 µM | [2] 30.4 µM | [3] 41.4 µM | [20] 24.5 µM | [4] 41.8 µM | [5] 31.5 µM | [6] 36.8 µM | [7] 30.5 µM | [8] 31.4 µM | [9] 15.3 µM | [10] 16.3 µM | [11] 39.2 µM | [12] 37.8 µM | [13] 19.8 µM | [15] 14.3 µM | [16] 33 µM | [17] 14.6 µM | [18] > 100 µM

O=C(c1cccs1)N1CCCN(C(=O)c2cccs2)C1=S
inactive: [1] > 100 µM | [2] > 100 µM | [3] > 100 µM | [19] > 100 µM | [4] > 100 µM | [5] > 100 µM | [6] > 100 µM | [7] > 100 µM | [10] > 100 µM | [11] > 100 µM | [12] > 100 µM | [14] > 100 µM | [15] > 100 µM | [17] > 100 µM | [18] > 100 µM
